Laboratory results taken from PubChem BioAssay (NCI).
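Grown in 96-well plates, cells were treated for 48 hours with each compound at five concentrations. Insufficient inhibition: endpoint recorded as highest concentration tested. At the TGI there is no net growth.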

Experiments:
Assay in all cases: NCI-60 cell line screen, 48 h
OVCAR-5 ovarian = tested on: OVCAR-5 ovarian
RPMI-8226 leukemia = tested on: RPMI-8226 leukemia
HCT-15 colon = tested on: HCT-15 colon
SNB-75 CNS = tested on: SNB-75 CNS
IGROV1 ovarian = tested on: IGROV1 ovarian
MDA-MB-231 breast = tested on: MDA-MB-231 breast
BT-549 breast = tested on: BT-549 breast
NCI/ADR-RES ovarian = tested on: NCI/ADR-RES ovarian
SK-MEL-28 melanoma = tested on: SK-MEL-28 melanoma
T-47D breast = tested on: T-47D breast
MOLT-4 leukemia = tested on: MOLT-4 leukemia
CAKI-1 renal = tested on: CAKI-1 renal
SF-295 CNS = tested on: SF-295 CNS
MDA-MB-435 = tested on: MDA-MB-435
NCI-H226 lung = tested on: NCI-H226 lung
A549 NSCLC = tested on: A549 NSCLC
TK-10 renal = tested on: TK-10 renal
HOP-62 NSCLC = tested on: HOP-62 NSCLC
M14 melanoma = tested on: M14 melanoma
A498 renal = tested on: A498 renal
COLO 205 colon = tested on: COLO 205 colon
NCI-H460 lung = tested on: NCI-H460 lung
SK-MEL-2 melanoma = tested on: SK-MEL-2 melanoma
LOX IMVI melanoma = tested on: LOX IMVI melanoma
HOP-92 NSCLC = tested on: HOP-92 NSCLC
PC-3 prostate = tested on: PC-3 prostate
SF-268 CNS = tested on: SF-268 CNS
OVCAR-8 ovarian = tested on: OVCAR-8 ovarian
SNB-19 CNS = tested on: SNB-19 CNS
K-562 leukemia = tested on: K-562 leukemia
MALME-3M melanoma = tested on: MALME-3M melanoma
SW-620 colon = tested on: SW-620 colon
ACHN renal = tested on: ACHN renal
RXF 393 renal = tested on: RXF 393 renal
U251 CNS = tested on: U251 CNS
NCI-H522 lung = tested on: NCI-H522 lung
UACC-62 melanoma = tested on: UACC-62 melanoma
OVCAR-3 ovarian = tested on: OVCAR-3 ovarian
HL-60(TB) leukemia = tested on: HL-60(TB) leukemia
SK-OV-3 ovarian = tested on: SK-OV-3 ovarian
NCI-H23 lung = tested on: NCI-H23 lung
UACC-257 melanoma = tested on: UACC-257 melanoma
CCRF-CEM leukemia = tested on: CCRF-CEM leukemia
SF-539 CNS = tested on: SF-539 CNS
SK-MEL-5 melanoma = tested on: SK-MEL-5 melanoma
UO-31 renal = tested on: UO-31 renal
EKVX NSCLC = tested on: EKVX NSCLC
HS 578T breast = tested on: HS 578T breast
786-0 renal = tested on: 786-0 renal
KM12 colon = tested on: KM12 colon
DU-145 prostate = tested on: DU-145 prostate
MDA-N = tested on: MDA-N
HT29 colon = tested on: HT29 colon
HCT-116 colon = tested on: HCT-116 colon
SN12C renal = tested on: SN12C renal
OVCAR-4 ovarian = tested on: OVCAR-4 ovarian
HCC-2998 colon = tested on: HCC-2998 colon
SR leukemia = tested on: SR leukemia
MCF7 breast = tested on: MCF7 breast

Measured: TGI

COC(=O)CCCc1c(-c2[nH]c3ccccc3c2CCCC(=O)OC)[nH]c2ccccc12
not listed: OVCAR-4 ovarian | HCC-2998 colon | SR leukemia | MCF7 breast
> 100 µM: all other assays above

CN(C(=O)c1ccccc1)C1CCCC(=O)CC1 (stereo not given)
not listed: NCI/ADR-RES ovarian | MOLT-4 leukemia | SK-MEL-5 melanoma
> 100 µM: all other assays above

CNc1nc(SC)nc2c1c(N)nn2C
not listed: HL-60(TB) leukemia | SF-539 CNS | EKVX NSCLC | SR leukemia | MCF7 breast
> 100 µM: all other assays above

Brc1ccc(N=NN2CCCC2)cc1
97.3 µM: T-47D breast
not listed: SNB-75 CNS | NCI/ADR-RES ovarian | OVCAR-8 ovarian
> 100 µM: all other assays above

CC(C)(C)OC(=O)N1CCCC1=O
not listed: NCI/ADR-RES ovarian | CAKI-1 renal | COLO 205 colon | NCI-H522 lung | OVCAR-4 ovarian
> 10 µM: all other assays above
